The values below come from publication PMC9486541, “Design, synthesis and cytotoxic evaluation of novel betulonic acid-diazine derivatives as potential antitumor agents” (Frontiers in Chemistry, 2022).

One data set deals with MCF-7. Description: MTT assay, MCF-7 cells. It counts as cell-based, human. The following applies: Homo sapiens, MCF7, 72 h incubation, read-out: Half maximal inhibitory concentration (IC50) values, MCF-7. The text has this:
The human hepatocellular carcinoma cell line (HepG2), human hepatocellular carcinoma cell line (Bel-7402), human cervical cancer cell line (Hela), human breast adenocarcinoma cell line (MCF-7) and Madin-Darby canine kidney cell line (MDCK) were obtained from the Chinese Academy of Medical Sciences and Peking Union Medical College. Cultures were maintained as monolayer in RPMI-1640/DMEM supplemented with 10% (v/v) fetal bovine serum (FBS) and 1% (v/v) penicillin/streptomycin (Thermo Technologies, New York, NY, United States) under a humidified atmosphere containing 5% CO2 at 37°C. The BoA derivatives and positive control drugs (BoA and DDP) under study were dissolved in DMSO (Sigma, St. Louis, MO, United States) and added at required concentrations to the cell culture. Cells incubated without the preparations served as the control.
The antitumor activity was assessed by MTT assay, as previously reported ([Fang et al., 2018]). Each tested compound and positive control drugs were dissolved in DMSO and diluted with the medium to the test concentrations, and the final concentration of DMSO in the culture medium was controlled at less than 0.5% (v/v). Briefly, cells were cultured at 37°C and dispersed in replicates in 96-well plates with HepG2, Bel-7402, HeLa, MCF-7 and MDCK for 24 h. Fresh medium along with compounds (BoAA-BoAE, BoA2A-BoA2G, BoA3A-BoA3G, BoA4A-BoA4G) at different concentrations was then added to individual wells and incubated for 72 h, with BoA and DDP as the positive control. Experiments on FXR expression were separated into three groups: Control (PBS), BoA2C (8 μM), and BoA2C (8 μM) + DY268 (10 μM) ([Giordano et al., 2016]), with three repeating wells in each. In separate wells, BoA2C and DY268 were introduced and cultured for 72 h. After 72 h, the cell was incubated with MTT solution (0.5 mg/ml) for an additional 4 h at 37°C. The produced formazan crystals were solubilized with DMSO, and the optical density of solution was measured at 570 nm using a plate reader (BIORAD 550 spectrophotometer, Bio-rad Life Science Development Ltd., Beijing, China). Wells without drugs were used to be blanks. The IC50 values were defined as the concentration of compounds that produced a 50% proliferation inhibition of surviving cells and calculated using the Graph Pad Prism 5. The inhibitory rate was calculated in the following Equation 1, where OD is the optical density: % inhibition=[1−(OD Sample group−OD Blank group)/(OD Control group−OD Blank group)]×100% (1)
(Tetrazolium assays rely on reduction of a dye to a coloured formazan, in cell work by metabolically active cells.)

The next data set has as its system MDCK cells. Description: DAPI staining of nuclear changes, MDCK. It counts as cell-based, canine. The following applies: MDCK cells, 2, 4, 8 μM.

The melting point is the temperature of the solid-liquid transition. On to `C=C(C)[C@@H]1CC[C@]2(C(=O)OCCOC(=O)c3cnc(C)cn3)CC[C@]3(C)[C@H](CC[C@@H]4[C@@]5(C)CCC(=O)C(C)(C)[C@@H]5CC[C@]43C)[C@@H]12` [BoA2C, (5-Methylpyrazin-2-acyloxy)-ethyl-3-oxolup-20(29)-en-28-oate], for which the melting point was 139 to 141 °C. For the same compound, the IC50 in the data set with MCF-7 amounted to 3.39 ± 0.07 µM. For the same compound, in the data set with MDCK cells, the “nuclear damage (DAPI staining)” value is reported as “did not show a significant nuclear damage”.
